The record followed here is patent publication US8558002B2, “Sulfoximines as kinase inhibitors” (Allergan, Inc., priority 2006, dated 2013).

Molecules are shown by their SMILES.

One assay deals with T1, PDGFRβ (Homo sapiens, UniProt P09619).
T1 construct: 200-300 ng purified cytoplasmic domain PDGFR-b protein (Millipore); purchased Millipore
Put plainly: PDGFRβ Kinase Assay (poly-Glu-Tyr ELISA). The format is biochemical. The note with it: purified cytoplasmic domain PDGFR-b protein, 36 μM ATP. Here is the method: Biochemical PDGFRβ kinase assays were performed in 96 well microtiter plates that were coated overnight with 75 μg of poly-Glu-Tyr (4:1) in 10 mM Phosphate Buffered Saline (PBS), pH 7.4. The coated plates were washed with 2 mls per well PBS+0.05% Tween-20 (PBS-T), blocked by incubation with PBS containing 1% BSA, then washed with 2 mls per well PBS-T prior to starting the reaction. Reactions were carried out in 100 μL reaction volumes containing 36 μM ATP in kinase buffer (50 mM Hepes buffer pH 7.4, 20 mM MgCl2, 0.1 mM MnCl2 and 0.2 mM Na3VO4). Test compounds were reconstituted in 100% DMSO and added to the reaction to give a final DMSO concentration of 5%. Reactions were initiated by the addition 20 ul per well of kinase buffer containing 200-300 ng purified cytoplasmic domain PDGFR-b protein (Millipore). Following a 60 minute incubation at 30° C., the reactions were washed 2 mls per well PBS-T. […] of a monoclonal anti-phosphotyrosine antibody-peroxidase conjugate diluted 1:10,000 in PBS-T was added to the wells for 30 minutes. Following a 2 mls per well wash with PBS-Tween-20, 100 μl of O-Phenylenediamine Dihydrochloride in phosphate-citrate buffer, containing urea hydrogen peroxide, was added to the wells for 7-10 minutes as a colorimetric substrate for the peroxidase. The reaction was terminated by the addition of 100 μl of 2.5N H2SO4 to each well and read using a microplate ELISA reader set at 492 nm. IC50 values for compound inhibition were calculated directly from graphs of optical density (arbitrary units) versus compound concentration following subtraction of blank values.
Background: An ELISA detects its analyte on a solid surface through an enzyme-linked reagent.

The target of the next assay is VEGFR1 (Homo sapiens, UniProt P17948). Put plainly: VEGFR1 Kinase. The format is biochemical.
Assay [1] deals with T2, VEGFR2 (Homo sapiens, UniProt P35968). Put plainly: VEGFR2 Cellular Assay (FLIPR, VEGF induced increases in intracellular calcium in HUVEC). Type of assay: cell-based. More on the design: host or cells: HUVEC. As to conditions: VEGF165 stimulation (10 ng/mL), Fluo-4. The procedure:
Automated FLIPR (Fluorometric Imaging Plate Reader) technology was used to screen for inhibitors of VEGF induced increases in intracellular calcium levels in fluorescent dye loaded endothelial cells. HUVEC (human umbilical vein endothelial cells) (Clonetics) were seeded in 384-well fibronectin coated black-walled plates overnight @ 37° C./5% CO2. Cells were loaded with calcium indicator Fluo-4 for 45 minutes at 37° C. Cells were washed 2 times (El×405, Biotek Instruments) to remove extracellular dye. For screening, cells were pre-incubated with test agents for 30 minutes, at a single concentration (10 uM) or at concentrations ranging from 0.0001 to 10.0 uM followed by VEGF165 stimulation (10 ng/mL). Changes in fluorescence at 516 nm were measured simultaneously in all 384 wells using a cooled CCD camera. Data were generated by determining max-min fluorescence levels for unstimulated, stimulated, and drug treated samples. IC50 values for test compounds were calculated from % inhibition of VEGF stimulated responses in the absence of inhibitor.
Target sequence in this assay (P35968 20-1356): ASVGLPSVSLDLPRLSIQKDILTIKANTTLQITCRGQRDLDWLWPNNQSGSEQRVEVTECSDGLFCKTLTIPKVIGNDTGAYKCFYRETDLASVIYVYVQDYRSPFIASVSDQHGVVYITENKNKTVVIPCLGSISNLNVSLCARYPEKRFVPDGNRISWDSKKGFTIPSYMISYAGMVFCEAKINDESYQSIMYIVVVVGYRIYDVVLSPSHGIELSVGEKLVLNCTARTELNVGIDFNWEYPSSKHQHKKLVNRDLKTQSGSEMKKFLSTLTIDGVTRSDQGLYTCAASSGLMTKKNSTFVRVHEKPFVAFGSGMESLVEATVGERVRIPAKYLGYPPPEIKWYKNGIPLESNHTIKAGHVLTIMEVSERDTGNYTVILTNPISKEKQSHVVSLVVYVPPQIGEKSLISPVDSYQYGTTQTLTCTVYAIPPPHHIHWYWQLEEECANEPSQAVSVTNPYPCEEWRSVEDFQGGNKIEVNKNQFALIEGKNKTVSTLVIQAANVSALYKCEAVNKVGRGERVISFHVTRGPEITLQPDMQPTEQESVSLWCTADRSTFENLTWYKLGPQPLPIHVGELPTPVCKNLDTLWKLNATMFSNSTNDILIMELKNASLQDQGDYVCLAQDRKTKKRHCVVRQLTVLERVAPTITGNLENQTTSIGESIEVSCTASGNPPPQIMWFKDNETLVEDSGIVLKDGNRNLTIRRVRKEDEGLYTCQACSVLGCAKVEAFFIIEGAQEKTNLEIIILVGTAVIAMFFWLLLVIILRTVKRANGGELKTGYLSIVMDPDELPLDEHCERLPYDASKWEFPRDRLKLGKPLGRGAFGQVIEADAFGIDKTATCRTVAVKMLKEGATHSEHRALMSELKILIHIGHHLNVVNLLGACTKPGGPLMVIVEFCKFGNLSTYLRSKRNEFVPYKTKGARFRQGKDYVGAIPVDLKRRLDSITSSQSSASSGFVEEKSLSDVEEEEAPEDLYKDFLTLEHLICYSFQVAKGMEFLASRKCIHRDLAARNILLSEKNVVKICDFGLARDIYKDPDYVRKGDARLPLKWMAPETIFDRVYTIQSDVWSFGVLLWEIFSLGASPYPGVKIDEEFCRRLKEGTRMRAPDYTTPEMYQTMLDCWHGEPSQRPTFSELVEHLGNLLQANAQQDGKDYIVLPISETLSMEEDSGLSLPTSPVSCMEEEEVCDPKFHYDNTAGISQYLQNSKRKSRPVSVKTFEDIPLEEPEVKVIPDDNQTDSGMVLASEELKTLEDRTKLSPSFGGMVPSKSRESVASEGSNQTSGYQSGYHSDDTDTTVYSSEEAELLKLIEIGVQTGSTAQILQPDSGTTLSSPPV
On the technique in general: Calcium assays in cells follow changes in intracellular calcium, usually with a dye or a luminescent sensor.

Assay [2] has as its target T2, VEGFR2. Put plainly: VEGFR2 Kinase Assay (biochemical KDR kinase, poly-Glu-Tyr ELISA). More on the design: 200-300 ng purified cytoplasmic domain KDR protein; purchased BPS Bioscience. As to conditions: purified cytoplasmic domain KDR protein, 2.7 μM ATP. Here is the method:
Biochemical KDR kinase assays were performed in 96 well microtiter plates that were coated overnight with 75 μg/well of poly-Glu-Tyr (4:1) in 10 mM Phosphate Buffered Saline (PBS), pH 7.4. The coated plates were washed with 2 mls per well PBS+0.05% Tween-20 (PBS-T), blocked by incubation with PBS containing 1% BSA, then washed with 2 mls per well PBS-T prior to starting the reaction. Reactions were carried out in […] reaction volumes containing 2.7 μM ATP in kinase buffer (50 mM Hepes buffer pH 7.4, 20 mM MgCl2, 0.1 mM MnCl2 and 0.2 mM Na3VO4). Test compounds were reconstituted in 100% DMSO and added to the reaction to give a final DMSO concentration of 5%. Reactions were initiated by the addition 20 ul per well of kinase buffer containing 200-300 ng purified cytoplasmic domain KDR protein (BPS Bioscience, San Diego, Calif.). Following a 15 minute incubation at 30° C., the reactions were washed 2 mls per well PBS-T. 100 μl of a monoclonal anti-phosphotyrosine antibody-peroxidase conjugate diluted 1:10,000 in PBS-T was added to the wells for 30 minutes. Following a 2 mls per well wash with PBS-Tween-20, 100 μl of O-Phenylenediamine Dihydrochloride in phosphate-citrate buffer, containing urea hydrogen peroxide, was added to the wells for 7-10 minutes as a colorimetric substrate for the peroxidase. The reaction was terminated by the addition of 100 μl of 2.5NH2SO4 to each well and read using a microplate ELISA reader set at 492 nm. IC50 values for compound inhibition were calculated directly from graphs of optical density (arbitrary units) versus compound concentration following subtraction of blank values.
Target sequence in this assay (P35968 786-1356 limits assumed): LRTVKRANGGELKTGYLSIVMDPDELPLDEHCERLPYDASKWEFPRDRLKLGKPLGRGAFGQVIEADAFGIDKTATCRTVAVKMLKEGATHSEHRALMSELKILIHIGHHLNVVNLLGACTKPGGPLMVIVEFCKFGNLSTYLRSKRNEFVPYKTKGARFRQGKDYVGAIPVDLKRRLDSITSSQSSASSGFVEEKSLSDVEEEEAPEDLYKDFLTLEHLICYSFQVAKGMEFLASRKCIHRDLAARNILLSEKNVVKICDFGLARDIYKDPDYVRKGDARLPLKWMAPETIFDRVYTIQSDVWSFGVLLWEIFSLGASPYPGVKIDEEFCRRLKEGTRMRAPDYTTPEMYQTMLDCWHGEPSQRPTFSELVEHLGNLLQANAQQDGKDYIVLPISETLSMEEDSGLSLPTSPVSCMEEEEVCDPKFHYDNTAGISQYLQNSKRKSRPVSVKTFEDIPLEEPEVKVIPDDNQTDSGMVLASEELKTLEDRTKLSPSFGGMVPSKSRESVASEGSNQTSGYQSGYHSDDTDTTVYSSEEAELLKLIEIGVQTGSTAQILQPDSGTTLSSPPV

Sequence of VEGFR1 (P17948 27-1338, species assumed): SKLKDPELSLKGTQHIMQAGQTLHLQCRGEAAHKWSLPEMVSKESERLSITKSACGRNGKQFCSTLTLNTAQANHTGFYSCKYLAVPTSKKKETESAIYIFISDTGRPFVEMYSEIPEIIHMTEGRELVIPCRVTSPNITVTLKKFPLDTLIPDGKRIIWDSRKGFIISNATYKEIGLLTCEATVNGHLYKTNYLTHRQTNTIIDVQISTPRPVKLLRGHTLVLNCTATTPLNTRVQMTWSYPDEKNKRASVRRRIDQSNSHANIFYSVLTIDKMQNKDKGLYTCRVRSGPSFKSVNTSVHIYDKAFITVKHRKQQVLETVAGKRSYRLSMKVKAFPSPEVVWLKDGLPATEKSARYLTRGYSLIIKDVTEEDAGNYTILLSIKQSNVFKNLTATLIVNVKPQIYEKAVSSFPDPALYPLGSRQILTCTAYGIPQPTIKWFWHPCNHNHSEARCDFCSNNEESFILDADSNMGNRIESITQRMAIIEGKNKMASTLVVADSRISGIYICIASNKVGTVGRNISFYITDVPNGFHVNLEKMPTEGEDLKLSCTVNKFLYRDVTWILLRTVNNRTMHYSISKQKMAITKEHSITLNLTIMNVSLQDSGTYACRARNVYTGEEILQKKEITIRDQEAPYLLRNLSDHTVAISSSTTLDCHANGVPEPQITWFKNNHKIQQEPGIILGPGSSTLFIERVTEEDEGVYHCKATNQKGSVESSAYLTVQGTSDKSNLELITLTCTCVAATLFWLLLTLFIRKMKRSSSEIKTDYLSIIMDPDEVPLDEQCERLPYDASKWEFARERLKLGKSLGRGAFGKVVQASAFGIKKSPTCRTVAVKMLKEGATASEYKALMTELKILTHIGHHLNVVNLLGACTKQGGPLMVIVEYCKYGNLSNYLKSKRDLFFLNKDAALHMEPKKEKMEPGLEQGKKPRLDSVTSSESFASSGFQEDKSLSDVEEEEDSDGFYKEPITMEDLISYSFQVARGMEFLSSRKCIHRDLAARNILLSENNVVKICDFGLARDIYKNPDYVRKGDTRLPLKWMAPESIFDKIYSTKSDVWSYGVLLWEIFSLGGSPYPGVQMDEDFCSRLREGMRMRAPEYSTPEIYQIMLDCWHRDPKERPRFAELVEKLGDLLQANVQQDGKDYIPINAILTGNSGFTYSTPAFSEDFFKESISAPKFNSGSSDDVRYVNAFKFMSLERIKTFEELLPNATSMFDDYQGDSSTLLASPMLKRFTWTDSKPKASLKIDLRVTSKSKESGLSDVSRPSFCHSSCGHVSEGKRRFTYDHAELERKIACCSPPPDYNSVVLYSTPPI
T1 sequence (P09619 554-1106 limits assumed): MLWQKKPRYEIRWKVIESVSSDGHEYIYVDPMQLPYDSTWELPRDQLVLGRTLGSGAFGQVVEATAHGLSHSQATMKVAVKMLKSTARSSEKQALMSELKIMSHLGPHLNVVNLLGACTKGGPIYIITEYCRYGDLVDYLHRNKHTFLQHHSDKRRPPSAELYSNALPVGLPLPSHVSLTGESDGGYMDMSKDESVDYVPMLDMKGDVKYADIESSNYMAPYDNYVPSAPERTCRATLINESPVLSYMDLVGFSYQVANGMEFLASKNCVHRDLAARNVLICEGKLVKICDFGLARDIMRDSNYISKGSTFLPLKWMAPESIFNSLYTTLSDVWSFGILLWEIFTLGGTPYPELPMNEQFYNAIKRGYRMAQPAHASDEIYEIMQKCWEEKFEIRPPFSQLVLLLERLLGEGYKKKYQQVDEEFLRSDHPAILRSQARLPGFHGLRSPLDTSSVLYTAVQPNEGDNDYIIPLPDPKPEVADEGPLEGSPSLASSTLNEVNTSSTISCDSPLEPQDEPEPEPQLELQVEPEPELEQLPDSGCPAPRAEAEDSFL

As a reminder, the IC50 is the concentration that inhibits the measured activity by half. Regarding `COC(=O)CCCCS(=O)(CCCCC(=O)OC)=NC(=O)c1cnc(N)c(C#Cc2ccc(NC(=O)Nc3cc(C)ccc3F)cc2)c1` [Example 19, Dimethyl 5,5′-{N-[(6-amino-5-{[4-({[(2-fluoro-5-methylphenyl)amino]carbonyl}amino)phenyl]ethynyl}pyridin-3-yl)carbonyl]sulfonimidoyl}dipentanoate], the IC50 is 20 nM on PDGFRβ, 23 nM at VEGFR1, 5 nM on VEGFR2 [1] and 13 nM on VEGFR2 [2].
For `COC(=O)CCCCS(=O)(CCCCC(=O)OC)=NC(=O)c1cnc(N)c(C#Cc2cccc(NC(=O)c3cc(C)ccc3F)c2)c1` [Example 7, Dimethyl 5,5′-(N-{[6-amino-5-({3-[(2-fluoro-5-methylbenzoyl)amino]phenyl}ethynyl)pyridin-3-yl]carbonyl}sulfonimidoyl)dipentanoate], in that order: 29 nM, 13 nM, 49 nM and 11 nM.
In the same order, the values of `COC(=O)CCCCS(=O)(CCCCC(=O)OC)=NC(=O)c1cnc(N)c(C#Cc2cccc(NC(=O)c3occc3C)c2)c1` [Example 2, Dimethyl 5,5′-(N-{[6-amino-5-({3-[(3-methyl-2-furoyl)amino]phenyl}ethynyl)pyridin-3-yl]carbonyl}sulfonimidoyl)dipentanoate] are 176 nM, 10 nM, 3 nM and 3 nM.
